Measurements from PMC10223552 (Pharmaceuticals, 2023).
Where “and” joins values, the source holds several entries; their conditions need not be identical. Equal entries are not always repeated. Where two headings read alike, the source gives them in different places.

Legend:
[1] = test system: MDA-MB-231 breast cancer cells; assay: Apoptosis/necrosis detection (Annexin V-FITC/PI, image cytometry), MDA-MB-231; assay type: cell-based, human; details: 48 h
Method: The MTT test results prompted further study. Staining with propidium iodide and Annexin V-FITC was performed to distinguish apoptotic from necrotic cell death.
Apoptosis was analyzed using the NucleoCounter® NC-3000™ (Chemometec Inc., Lillerød, Denmark) according to the manufacturer’s protocol using Annexin V from Biotium (Fremont, CA, USA). MCF-7 and MDA-MB-231 cells were seeded into 6-well plates (2 × 10^5 cells/mL) and cultured until 70–80% confluence was reached. […] Scatter plots were used to determine the proportion of healthy cells (Annexin V-negative/PI-negative cells), early apoptotic cells (Annexin V-positive/PI-negative cells), late apoptotic cells (Annexin V-positive/PI-positive cells), and necrotic cells (Annexin V-negative/PI-positive cells). Data were derived from three independent experiments with three replicates.

eqBuChE = eqBuChE (Equus caballus, UniProt P81908); assay: biochemical; details: for inhibition at 10 µM: read-out: eqBuChE % inh. (10 µM) ± SD; for IC50: read-out: eqBuChE IC50 ± sem
eqBuChE, sequence (P81908 whole entry): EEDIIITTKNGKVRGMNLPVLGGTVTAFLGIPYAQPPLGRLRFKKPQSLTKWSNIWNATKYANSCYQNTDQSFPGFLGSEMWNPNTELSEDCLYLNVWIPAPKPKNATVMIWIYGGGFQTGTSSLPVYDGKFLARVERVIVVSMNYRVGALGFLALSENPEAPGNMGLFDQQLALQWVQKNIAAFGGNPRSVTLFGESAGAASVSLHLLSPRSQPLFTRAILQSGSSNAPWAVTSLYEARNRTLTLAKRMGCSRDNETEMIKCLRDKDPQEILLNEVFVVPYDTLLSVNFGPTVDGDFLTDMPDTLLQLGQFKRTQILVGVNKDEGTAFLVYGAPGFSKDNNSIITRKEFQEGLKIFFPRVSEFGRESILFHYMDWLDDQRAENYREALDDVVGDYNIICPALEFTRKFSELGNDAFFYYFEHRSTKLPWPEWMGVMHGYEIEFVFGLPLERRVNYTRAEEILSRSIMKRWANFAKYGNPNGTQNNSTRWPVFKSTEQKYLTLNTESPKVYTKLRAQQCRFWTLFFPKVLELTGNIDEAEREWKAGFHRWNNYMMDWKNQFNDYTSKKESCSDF

[2] = test system: MDA-MB-231 breast cancer cells; assay: cells; assay type: cell-based; details: Homo sapiens, MDA-MB-231, 48 h, read-out: MTT IC50 MDA-MB-231
Method: (§1) The cell lines were obtained from American Type Culture Collection (ATCC, Manassas, VA, USA) and were cultured at 37 °C in the presence of 5% CO2 in the atmosphere. […] The cell’s morphology was examined under a Nikon Eclipse Ti inverted phase contrast microscope (Nikon, Tokyo, Japan). The authenticity of tested cell lines was verified by short tandem repeat (STR) genotyping in the Department of Forensic Medicine (Medical University of Lublin, Lublin, Poland).
(§2) Cell viability based on metabolic activity was evaluated with the MTT colorimetric test based on the ability of viable cells to cause the transformation of tetrazolium salts MTT (3-[4,5-dimethylthiazol-2-yl]-2,5)diphenyltetrazolium bromide) into purple formazan, by cellular dehydrogenases. The cells were seeded into 96-well plates at a concentration of 2 × 10^5 cells/mL. […] Doxorubicin was used for comparison as the standard chemotherapeutic agent used in breast cancer treatment. After 48 h of incubation cell cultures were supplemented with 20 µL of 5 mg/mL MTT (Thermofisher, Waltham, MA, USA) stock in PBS (Corning, NY, USA), and the incubation was continued for 4 h at 37 °C. Next, the medium with MTT was removed, and obtained crystals were dissolved in 200 µL of DMSO (dimethyl sulfoxide, Avantor, Gliwice, Poland). The solution absorbency was measured at 570 nm, using a PowerWave™ xs microplate spectrophotometer (BioTek Instruments, Winooski, VT, USA). The experiment was performed three times with three replicates for each concentration of tested compounds.

[3] = test system: MCF-7 breast cancer cells; assay: cells; assay type: cell-based; details: for IC50: Homo sapiens, MCF7, 48 h, read-out: MTT IC50 MCF-7
Method: as §1, §2

eeAChE = molecular target: T1, eeAChE (Electrophorus electricus, UniProt O42275); assay: biochemical; set-up: species or system electric eel; details: 10 µM; read-out: eeAChE % inh. (10 µM) ± SD
T1 construct: purchased Sigma–Aldrich (Steinheim, Germany)
T1 sequence (O42275 24-633): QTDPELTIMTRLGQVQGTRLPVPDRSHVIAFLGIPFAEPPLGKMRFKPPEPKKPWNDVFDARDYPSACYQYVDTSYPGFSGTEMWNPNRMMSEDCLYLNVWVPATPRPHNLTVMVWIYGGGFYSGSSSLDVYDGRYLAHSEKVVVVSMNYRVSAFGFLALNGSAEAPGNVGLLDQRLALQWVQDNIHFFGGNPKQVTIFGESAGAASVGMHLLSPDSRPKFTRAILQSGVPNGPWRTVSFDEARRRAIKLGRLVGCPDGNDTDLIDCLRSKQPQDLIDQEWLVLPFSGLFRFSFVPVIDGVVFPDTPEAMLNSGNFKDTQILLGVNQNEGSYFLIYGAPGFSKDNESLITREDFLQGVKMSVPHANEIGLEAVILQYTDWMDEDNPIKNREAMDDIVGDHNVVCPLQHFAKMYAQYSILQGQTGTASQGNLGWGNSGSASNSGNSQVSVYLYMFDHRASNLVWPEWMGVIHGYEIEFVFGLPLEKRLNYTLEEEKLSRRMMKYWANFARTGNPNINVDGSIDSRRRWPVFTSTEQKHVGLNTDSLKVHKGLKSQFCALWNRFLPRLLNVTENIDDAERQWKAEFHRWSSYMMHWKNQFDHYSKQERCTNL

hH3R = molecular target: T2, hH3R (Homo sapiens, UniProt Q9Y5N1); assay: biochemical; assay type: binding
T2 construct: expressed in transfected cells
T2 sequence (Q9Y5N1 whole entry): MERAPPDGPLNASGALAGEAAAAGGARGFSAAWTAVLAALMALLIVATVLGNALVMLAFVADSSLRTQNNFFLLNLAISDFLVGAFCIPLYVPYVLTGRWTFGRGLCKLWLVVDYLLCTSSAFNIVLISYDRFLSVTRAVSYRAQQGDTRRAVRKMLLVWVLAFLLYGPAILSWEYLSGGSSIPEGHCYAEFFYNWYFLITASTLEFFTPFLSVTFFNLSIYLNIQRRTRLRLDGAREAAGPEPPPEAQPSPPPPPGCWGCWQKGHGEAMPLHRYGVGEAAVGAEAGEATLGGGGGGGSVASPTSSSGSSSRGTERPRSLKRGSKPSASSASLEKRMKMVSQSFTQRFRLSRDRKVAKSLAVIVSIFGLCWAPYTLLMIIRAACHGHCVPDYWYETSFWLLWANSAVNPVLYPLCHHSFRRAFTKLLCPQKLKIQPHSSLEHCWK
Method: All newly synthesized compounds were evaluated as H3R antagonists/inverse agonists on the guinea pig ileum (gpH3R), stimulated electrically to induce contractions. The distinct affinity profile and species-dependent pharmacology of H3R ligands are known. […] Therefore, to compare species differences, all newly synthesized compounds were subjected to radioligand displacement assay in membrane fractions of HEK-293 cells stably expressing hH3R. […] Ex vivo assay for histamine H3R and H1R antagonists were measured on the isolated guinea pig ileum stimulated to contractions by histamine. The pA2-values were calculated according to Arunlakshana and Schild. The radioligand-displacement binding assay was performed in membrane fractions of HEK-293 cells stably expressing hH3R. Cell cultivation and membrane preparation was performed according to Kottke et al.. The Ki values were calculated from the IC50 values using the Cheng–Prusoff equation [37]. The statistical calculations were performed on –log(Ki). […] The inhibitory activities of novel ADS compounds were assessed in spectrophotometric Ellman’s assay using AChE from electric eel (eeAChE) and BuChE from horse serum (eqBuChE).
3.3 hH3R radioligand displacement binding assay.
The radioligand displacement binding assay was performed in membrane fractions of HEK-293 cells stably expressing hH3R. Cell cultivation and membrane preparation was performed according to Kottke et al. [T. Kottke, […]
radioligand displacement assay, radioactively labeled [3H]Nα-methylhistamine was used at a final concentration […]
The total assay volume was set to 200 µL. The compounds were tested in several appropriate concentrations between 100 µM and 0.1 nM. Pipetting was partly done by Freedom Evo® (Tecan).
The membrane fraction (20 […]
µg/well), test compounds and radiolabeled ligand were incubated for 90 minutes at 25 °C while shaking. The bound radioligand was separated from the free radioligand by filtration through GF/B filters pre-treated with 0.3 % (m/v) polyethyleneimine using a cell harvester. Radioactivity was determined by liquid scintillation counting using a MicroBeta® Trilux (Perkin Elmer). The data was obtained in duplicates in at least three independent experiments. Non-specific binding was subtracted from the raw data to calculate specific-binding values. The evaluation was performed with GraphPad Prism 6.1 (San Diego, CA, USA) using non-linear regression (one-site competition with a logarithmic scale). The Ki values were calculated from the IC50 values using the Cheng-Prusoff […]
equation. [C. […] The statistical calculations […]
were performed on –log(Ki).

| Compound | early apoptotic cells (Q1lr) ([1]; MDA-MB-231, IC50 concentration) [%] | late apoptotic cells (Q1ur) ([1]; MDA-MB-231, IC50 concentration) [%] | inhibition at 10 µM (eqBuChE) [%] | IC50 (eqBuChE) [µM] | IC50 [2] [µM] | IC50 [3] [µM] | inhibition at 10 µM (eeAChE) [%] | Ki (hH3R; mean ± sem, at least three independent experiments, read-out: hH3R -log(Ki) ± sem (converted)) [µM] | mode of cell death (in words) ([1]; both breast cancer lines, IC50 concentration) | Cell viability (%) ± SD, MCF-7 ([3]; MTT, 48 h, concentrations among 10-125 μM, column of each value cannot be told) | Ki (hH3R; hH3R Ki) |
| --- | --- | --- | --- | --- | --- | --- | --- | --- | --- | --- | --- |
| N=C(N)N(CCCCN1CCN(CCCCCCCOc2ccccc2)CC1)Cc1ccccc1 [ADS1017] | 22 | 39 | 70.8 ± 0.6 | 5.1 ± 0.1 | 19.9 | 24.7 | 49.7 ± 0.7 | 0.513 | – | – | – |
| Cl.Cl.N=C(NCCCCc1ccc(Cl)cc1)NCCCCN1CCCCC1 [ADS10310] | – | – | 83.9 ± 0.1 | 1.7 ± 0.1 | 115 | 82.9 | 7.3 ± 0.9 | – | mainly late apoptotic cells | 79.57±1.33% and 60.51±1.86% and 57.12±1.54% and 44.21±3.24% and 39.79±2.76% | < 0.2 µM and 0.127 µM |
